Test results published in patent US10973896B2, “Treatment or prevention of melanoma using photochemical internalization of a melanoma antigen” (PCI Biotech AS, priority 2014, dated 2021).

Legend:
[1] = system: J774 cells; assay: Live cell fluorescence microscopy of J774 cells; assay type: cell-based, mouse; details: for cellular uptake and distribution of Alexa488-labelled OVA: with or without parallel PCI treatment, FIG. 9A
Protocol: Fifty thousand J774.1 cells (ATCC no. TIB-67 mouse monocyte macrophage cell line) were seeded out on no. 1.5 glass coverslips (Glasswarenfabrik Karl Hecht KG, Sondheim, Germany) in 4-well plates overnight. The cells were incubated with 0.05 or 1,0 μg/ml TPCS2a for 18 hours and washed three times in drug-free culture medium prior to incubation with 25 μg/ml OVA-Alexa488 for four hours. Cells were subsequently washed in ice-cold PBS with Ca^2+ and Mg^2+ prior to microscopy. Images of cellular localization and PCI-induced cytosolic release of OVA was obtained by epi-fluorescence microscopy using a Plan-Apochromat 63×/1.40 Oil differential interference contrast (DIC) objective or 40×/0.95 Plan-Apochromat phase contrast (Korr Ph3 M27) objective with a Zeiss Axioimager Z.1 microscope (Carl Zeiss, Oberkochen, Germany). Fluorescence of Alexa488-labelled OVA was obtained by using a 470/40 nm band pass (BP) excitation filter with a beam splitter at 495 nm and a 525/50 nm BP emission filter. TPCS2a fluorescence was obtained by using a 395-440 nm BP excitation filter with a beam splitter at 460 nm, and a 620 nm long pass filter. Micrographs were recorded with a digital AxioCam MRm camera and processed and analysed by use of the Axiovision Software (Carl Zeiss).

[2] = system: bone marrow DCs; assay: Fluorescence microscopy of cytosolic antigen release in dendritic cells; assay type: cell-based, C57BL/6 mice; details: incubated with TPCS2a and Alexa488-labelled OVA
Protocol: Cells (J774.1 (ATCC no. TIB-67 mouse monocyte macrophage cell line) or bone marrow DCs from C57BL/6 mice) were incubated with 0.05 or 1.0 μg/ml TPCS2a and 25 μg/ml OVA-Alexa488 for 18 hours and washed three times in drug-free culture medium prior to incubation for four hours before light activation (3 min LumiSource exposure). The cells were subsequently washed in ice-cold PBS with Ca^2+ and Mg^2+ prior to microscopy. Images of cellular localization and PCI-induced cytosolic release of OVA were obtained by epi-fluorescence microscopy using a Plan-Apochromat 63×/1.40 Oil differential interference contrast (DIC) objective or 40×/0.95 Plan-Apochromat phase contrast (Korr Ph3 M27) objective with a Zeiss Axioimager Z.1 microscope (Carl Zeiss, Oberkochen, Germany). Fluorescence of Alexa488-labelled OVA was obtained by using a 470/40 nm band pass (BP) excitation filter with a beam splitter at 495 nm and a 525/50 nm BP emission filter. TPCS2a fluorescence was obtained by using a 395-440 nm BP excitation filter with a beam splitter at 460 nm, and a 620 nm long pass filter. Micrographs were recorded with a digital AxioCam MRm camera and processed and analysed by use of the Axiovision Software (Carl Zeiss).

[3] = Local reaction at the illuminated injection site (Example 2); assay type: in vivo, C57BL/6 mice; details: higher TPCS2a doses; days 1-3 after illumination; data not shown
Protocol: (§1) Then, the mice were shaved on the abdominal area, and the vaccines, consisting of OVA or of a mixture of OVA and TPCS2a, were injected intradermally using syringes with 29G needles. The vaccines were kept light protected and used within 60 minutes of preparation. The vaccines were given in two injections of 50 μl each, on the left and right side of the abdominal mid line. OVA was tested at 10 to 100 μg per dose. The TPCS2a dose was 7.5 to 250 μg.
(§2) On day 0, prior to vaccination and on various days thereafter (e.g. day 6, 7, 8, 9, 14, 23, as indicated) mice were bled by tail bleeding and erythrocytes were removed by lysis, before analysis of antigen-specific CD8 T cells by flow cytometry. At the end of the experiment (typically 11, 12, 14 or 23 days), the mice were euthanized and the splenocytes analysed ex vivo. At various time points after the TPCS2a injection (0-48 hours), the mice were anaesthetised by intraperitoneal injection of a mixture of ketamine (25 mg/kg body weight) and xylazin (4 mg/kg) and placed on a light source (for illumination and activation of the photosensitiser TPCS2a). The light dose was 6 minutes, if not otherwise stated. The whole procedure is illustrated in the scheme of FIG. 6A. The illumination of mice using LumiSource™ is imaged in FIG. 6B.

[4] = system: SIINFEKL-specific CD8 T cells; assay: PCI immunisation of OT-I-spiked mice, SIINFEKL pentamer flow cytometry (Example 2); assay type: in vivo, C57BL/6 mice; details: TPCS2a at 10, 25, 50, 100 and 250 μg; data not shown
Protocol: One day prior to the immunisation, spleens and lymph nodes were isolated from female OT-1 mice, and erythrocytes were removed by lysis (RBC Lysing Buffer Hybri-Max from Sigma-Aldrich) from the homogenised cell suspensions. The remaining cells were washed in PBS, filtered through 70 micron nylon strainers, and 2×10^6 OT-1 cells were administered by intravenous injection into recipient female C57BLJ6 mice; the adoptive transfer of SIINFEKL-specific CD8 T cells facilitates monitoring of the immune response by flow cytometry. One day or 8 hours later, mice were bled by tail bleeding, and the blood was collected in heparin-containing tubes for analysis of the baseline frequency of OVA-specific CD8 T cells.
as §1, §2
The frequency of OVA-specific CD8 T-cells in blood was monitored by staining the cells with anti-CD8 antibody and H-2K^b/SIINFEKL ProS pentamer (Proimmune, Oxford, UK) for analysis by flow cytometry. The activation status of the cells was further analysed by testing the expression of CD44 and CD69 by flow cytometry. Intracellular staining for IFN-γ was done after overnight stimulation of splenocytes in 24-well plates with the CD8 epitope OVA257-264 (SIINFEKL) at 37 ° C. Brefeldin A was added during the last 4 hours. The cells were then washed and fixed with 4% formaldehyde in PBS for 10 min on ice. Anti-CD16/32 was added to block unspecific binding to Fc receptors. The cells were then permeabilised with 0.1% NP40 in PBS for 3 min and washed before staining with anti-IFN-γ, anti-CD8 and ant-CD44 antibodies (eBioscience or BD Pharmingen). The cells were acquired using FACSCanto (BD Biosciences, San Jose, USA) and analysed using FlowJo 8.5.2 software (Tree Star, Inc., Ashland, Oreg.).

With “Alexa488-labelled OVA: Alexa488-labelled OVA protein for fluorescence microscopy” the “cellular uptake and distribution of Alexa488-labelled OVA” value [1] was “located close to the cell surface in concise spherical shaped bodies”.

In the case of “tetraphenyl chlorin disulfonate [TPCS2a]”, the “relative localisation of antigen and TPCS2a after light activation” value ([1]; FIG. 9B) is reported as “co-localised”, the “cellular uptake and distribution of Alexa488-labelled OVA” value [1] is reported as “diffuse green fluorescence” and the “localisation of antigen and photosensitiser” value ([2]; before light, FIG. 5A) is reported as “co-localisation of antigen and photosensitiser in DC endosomes”. For the same substance, the “antigen distribution after light activation” value ([2]; FIG. 5B) was “release of the antigen into the cytosol could be observed over 15 minutes”, the “local inflammation after illumination” value [3] was “more local inflammation with transient erythema” and the “OVA-specific immune response with increasing TPCS2a dose” value [4] was “increased the measured OVA-specific immune response”.
